Some test systems named below: DMS 273 small cell lung; M19-MEL melanoma; SK-OV-3 ovarian; MALME-3M melanoma; TK-10 renal; EKVX NSCLC; MOLT-4 leukemia; A498 renal; DU-145 prostate; MCF7 breast.
Holding throughout (assay): NCI-60 cell line screen, 48 h

This is an account of results in PubChem BioAssay (NCI).

Each structure is given as a SMILES string. Where “and” joins values, the source holds several entries; their conditions need not be identical. Identical values can stand only once.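 All cell lines were grown in 96-well plates and treated with compound for 48 hours. Here, GI50 denotes the concentration required for 50% inhibition of growth. TGI: concentration producing complete growth inhibition.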

As for `Fc1ccc(N=C2C=CC(=Nc3ccc(F)cc3)c3ccccc32)cc1`, the TGI with DMS 273 small cell lung, with M19-MEL melanoma, in the assay with SK-OV-3 ovarian, with MALME-3M melanoma, in the assay on TK-10 renal and in the assay on EKVX NSCLC was more than 100 µM in each case. Further, the TGI with MOLT-4 leukemia and in the assay on A498 renal was more than 100 µM throughout.

In the case of `CC1[C@@H]2CC=C3[C@H]4CCC5Cc6nc7c(nc6C[C@@]5(C)C4CC(=O)[C@]32CO[C@]12OC(C)(C)CC2O)CC1CC[C@@H]2C3=C[C@H]4O[C@@]5(O[C@@](C)(CO)C[C@@H]5O)C(C)[C@@]4(O)[C@]3(C)[C@@H](O)CC2[C@]1(C)C7` (some centres undefined), the GI50 in the assay on DMS 273 small cell lung is 0.000365 µM; with DU-145 prostate, 0.0538 µM; in the assay on M19-MEL melanoma, 0.617 µM and 2.48 µM; with SK-OV-3 ovarian it was 0.00138 µM and 0.00234 µM; in the assay on MCF7 breast, 0.000482 µM and 0.00142 µM; in the assay on MALME-3M melanoma, 0.00807 µM and 0.00577 µM. In addition, the GI50 is 0.00539 µM and 0.00763 µM with EKVX NSCLC; 0.000203 µM and 0.000365 µM with MOLT-4 leukemia; 0.000721 µM with A498 renal. Moreover, the TGI was 0.000328 µM and 0.000802 µM in the assay on DMS 273 small cell lung; 0.716 µM in the assay with DU-145 prostate; more than 3.65 µM with M19-MEL melanoma; 0.0239 µM and 0.073 µM in the assay with SK-OV-3 ovarian; 0.145 µM and 0.0648 µM in the assay with MALME-3M melanoma; 0.576 µM in the assay on TK-10 renal. Also, the TGI with EKVX NSCLC is 0.141 µM and 0.227 µM; in the assay on MOLT-4 leukemia it was 0.00156 µM and 0.00157 µM; in the assay on A498 renal, 0.0187 µM and 0.0124 µM.

Turning to `Cc1cc(Cl)cc2c1NC(=O)C2(O)C(C(=O)c1ccccc1)c1ccccc1` (centres undefined), the TGI with DMS 273 small cell lung was more than 100 µM; with M19-MEL melanoma, 10 µM; in the assay on SK-OV-3 ovarian it was more than 100 µM; in the assay with MALME-3M melanoma, > 100 µM and 49.2 µM; in the assay on TK-10 renal, more than 100 µM; in the assay with EKVX NSCLC, more than 100 µM. For the same molecule, the results for the TGI with MOLT-4 leukemia and with A498 renal were 70.9 µM and 65.7 µM, respectively. Further, in the assay with MALME-3M melanoma, the GI50 was 91.5 µM and 22.7 µM.

Consider `Cc1ccc(NC(=O)CC2SC(=Nc3ccc(Cl)cc3)NC2=O)cc1C` (centres undefined), for which the TGI in the assay with DMS 273 small cell lung is 34.3 µM; with M19-MEL melanoma, 36.1 µM; in the assay on SK-OV-3 ovarian, more than 66.1 µM; with MALME-3M melanoma, 33.2 µM; with TK-10 renal it was 31.1 µM; in the assay on EKVX NSCLC it was 31.4 µM. In addition, the results for the TGI with MOLT-4 leukemia and in the assay with A498 renal were 5.28 µM and 43.2 µM, respectively.

Consider `Cc1cc(C)c(/C=N/NS(=O)(=O)c2ccccc2)c(C)c1`, for which the TGI with DMS 273 small cell lung, with M19-MEL melanoma, in the assay with SK-OV-3 ovarian, in the assay with MALME-3M melanoma, with TK-10 renal and in the assay on EKVX NSCLC was more than 100 µM in each case. In addition, the TGI in the assay with MOLT-4 leukemia and in the assay on A498 renal was more than 100 µM throughout.

As for `CC(=O)O[C@@H]1CC[C@@]2(C)C(=O)C34C[C@@]5(C)C([C@@H](C)CCCC(C)C)CCC5(C)[C@](O)(O3)C(=O)[C@H]4C2C1(C)C` (some centres undefined), the TGI came to 27.2 µM with DMS 273 small cell lung; 27.3 µM in the assay with M19-MEL melanoma; 32.4 µM in the assay on SK-OV-3 ovarian; 33.2 µM with MALME-3M melanoma; 30.5 µM in the assay on TK-10 renal; 38.3 µM with EKVX NSCLC. In addition, the TGI in the assay on MOLT-4 leukemia worked out at 28.8 µM; with A498 renal, 38.5 µM.

Turning to `O=C(O)CCC1c2[nH]c3ccccc3c2CCN1Cc1ccccc1` (centres undefined), the TGI in the assay on DMS 273 small cell lung, with M19-MEL melanoma, in the assay on SK-OV-3 ovarian, in the assay on MALME-3M melanoma, in the assay with TK-10 renal and in the assay on EKVX NSCLC was more than 100 µM in each case. Moreover, the TGI with MOLT-4 leukemia and with A498 renal was more than 100 µM each time.

For the molecule `CCOC(=O)C(=O)C(C#N)c1ccc(Cl)cc1` (centres undefined), the TGI in the assay with DMS 273 small cell lung, with M19-MEL melanoma, in the assay with SK-OV-3 ovarian, in the assay on MALME-3M melanoma, in the assay on TK-10 renal and in the assay on EKVX NSCLC was more than 100 µM in each case. The TGI in the assay with MOLT-4 leukemia and with A498 renal was more than 100 µM in each case.

For the molecule `COc1cc(CC(=O)O)c([N+](=O)[O-])cc1OC`, the TGI in the assay on DMS 273 small cell lung, with M19-MEL melanoma, in the assay on SK-OV-3 ovarian, in the assay on MALME-3M melanoma, in the assay on TK-10 renal and in the assay with EKVX NSCLC was more than 100 µM in each case. In addition, the TGI in the assay with MOLT-4 leukemia and with A498 renal was more than 100 µM each time.

With `COC(=O)C(C(=O)C(=O)Nc1ccccc1C)c1nc2ccc([N+](=O)[O-])cc2[nH]c1=O` (centres undefined), the TGI with DMS 273 small cell lung, in the assay on M19-MEL melanoma, in the assay with SK-OV-3 ovarian, in the assay on MALME-3M melanoma, with TK-10 renal and in the assay with EKVX NSCLC was more than 100 µM in each case. Moreover, the TGI in the assay with MOLT-4 leukemia and with A498 renal was more than 100 µM throughout.

Take `O=C(CC1(O)C(=O)Nc2ccccc21)c1ccccc1O` (centres undefined): the TGI with DMS 273 small cell lung, in the assay on M19-MEL melanoma, in the assay with SK-OV-3 ovarian, in the assay on MALME-3M melanoma, in the assay with TK-10 renal and in the assay with EKVX NSCLC was more than 100 µM throughout. For the same molecule, the TGI with MOLT-4 leukemia and in the assay with A498 renal was more than 100 µM throughout.
